# Tests used:
# Assay type in all cases: in vivo
# [1] = test system: foxtail, giant (giant foxtail, Setaria faberii); assay: Test A preemergence, visual plant response rating; conditions: for Foxtail, Giant plant response rating: 125 g ai/ha, preemergence, 0 to 100 scale, 0 no effect, 100 complete control; for Foxtail, Giant plant response rating (0 to 100 scale): 500 g ai/ha Preemergence, approx. 10 days
# Outline: (§1)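 Ratings use a 0–100 visual scale (100 = complete control) against untreated controls, scored about 10 days after greenhouse treatment. Test chemicals were formulated in surfactant-containing non-phytotoxic solvent and applied either as soil spray after planting (preemergence) or onto one- to two-leaf, 2–10 cm plants (postemergence).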
# [2] = test system: pigweed (Amaranthus retroflexus); assay: Test A preemergence, visual plant response rating; conditions: for Pigweed plant response rating: 125 g ai/ha, preemergence, 0 to 100 scale, 0 no effect, 100 complete control; for Pigweed plant response rating (0 to 100 scale): 500 g ai/ha Preemergence, approx. 10 days
# Outline: as §1
# [3] = test system: barnyardgrass (Echinochloa crus-galli); assay: Test A preemergence, visual plant response rating; conditions: for Barnyardgrass plant response rating: 125 g ai/ha, preemergence, 0 to 100 scale, 0 no effect, 100 complete control; for Barnyardgrass plant response rating (0 to 100 scale): 500 g ai/ha Preemergence, approx. 10 days
# Outline: as §1
# kochia (Kochia scoparia) [4] = assay: Test A preemergence, visual plant response rating; conditions: for Kochia plant response rating: 125 g ai/ha, preemergence, 0 to 100 scale, 0 no effect, 100 complete control; for Kochia plant response rating (0 to 100 scale): 500 g ai/ha Preemergence, approx. 10 days
# Outline: as §1
# [5] = test system: Italian ryegrass (Lolium multiflorum); assay: Test A preemergence, visual plant response rating; conditions: for Ryegrass, Italian plant response rating: 125 g ai/ha, preemergence, 0 to 100 scale, 0 no effect, 100 complete control; for Ryegrass, Italian plant response rating (0 to 100 scale): 500 g ai/ha Preemergence, approx. 10 days
# Outline: as §1
# [6] = test system: ragweed (common ragweed, Ambrosia elatior); assay: Test A preemergence, visual plant response rating; conditions: for Ragweed plant response rating: 125 g ai/ha, preemergence, 0 to 100 scale, 0 no effect, 100 complete control; for Ragweed plant response rating (0 to 100 scale): 500 g ai/ha Preemergence, approx. 10 days
# Outline: as §1
# [7] = test system: foxtail, giant (giant foxtail, Setaria faberii); assay: Test A postemergence, visual plant response rating; conditions: for Foxtail, Giant plant response rating (0 to 100 scale): 500 g ai/ha, postemergence, 0 is no effect, 100 is complete control; for Foxtail, Giant plant response rating: Postemergence, 125 g ai/ha, 0 to 100 scale (0 no effect, 100 complete control)
# Outline: as §1
# [8] = test system: pigweed (Amaranthus retroflexus); assay: Test A postemergence, visual plant response rating; conditions: for Pigweed plant response rating (0 to 100 scale): 500 g ai/ha, postemergence, 0 is no effect, 100 is complete control; for Pigweed plant response rating: Postemergence, 125 g ai/ha, 0 to 100 scale (0 no effect, 100 complete control)
# Outline: as §1
# [9] = test system: galium (catchweed bedstraw, Galium aparine); assay: Test A postemergence, visual plant response rating; conditions: for Galium plant response rating (0 to 100 scale): 500 g ai/ha, postemergence, 0 is no effect, 100 is complete control; for Galium plant response rating: Postemergence, 125 g ai/ha, 0 to 100 scale (0 no effect, 100 complete control)
# Outline: as §1
# [10] = test system: wheat (Triticum aestivum); assay: Test A postemergence, visual plant response rating; conditions: for Wheat plant response rating (0 to 100 scale): 500 g ai/ha, postemergence, 0 is no effect, 100 is complete control; for Wheat plant response rating: Postemergence, 125 g ai/ha, 0 to 100 scale (0 no effect, 100 complete control)
# Outline: as §1
# [11] = test system: barnyardgrass (Echinochloa crus-galli); assay: Test A postemergence, visual plant response rating; conditions: for Barnyardgrass plant response rating (0 to 100 scale): 500 g ai/ha, postemergence, 0 is no effect, 100 is complete control; for Barnyardgrass plant response rating: Postemergence, 125 g ai/ha, 0 to 100 scale (0 no effect, 100 complete control)
# Outline: as §1
# kochia (Kochia scoparia) [12] = assay: Test A postemergence, visual plant response rating; conditions: for Kochia plant response rating (0 to 100 scale): 500 g ai/ha, postemergence, 0 is no effect, 100 is complete control; for Kochia plant response rating: Postemergence, 125 g ai/ha, 0 to 100 scale (0 no effect, 100 complete control)
# Outline: as §1
# [13] = test system: Italian ryegrass (Lolium multiflorum); assay: Test A postemergence, visual plant response rating; conditions: for Ryegrass, Italian plant response rating (0 to 100 scale): 500 g ai/ha, postemergence, 0 is no effect, 100 is complete control; for Ryegrass, Italian plant response rating: Postemergence, 125 g ai/ha, 0 to 100 scale (0 no effect, 100 complete control)
# Outline: as §1
# [14] = test system: blackgrass (Alopecurus myosuroides); assay: Test A postemergence, visual plant response rating; conditions: for Blackgrass plant response rating (0 to 100 scale): 500 g ai/ha, postemergence, 0 is no effect, 100 is complete control; for Blackgrass plant response rating: Postemergence, 125 g ai/ha, 0 to 100 scale (0 no effect, 100 complete control)
# Outline: as §1
# [15] = test system: ragweed (common ragweed, Ambrosia elatior); assay: Test A postemergence, visual plant response rating; conditions: for Ragweed plant response rating (0 to 100 scale): 500 g ai/ha, postemergence, 0 is no effect, 100 is complete control; for Ragweed plant response rating: Postemergence, 125 g ai/ha, 0 to 100 scale (0 no effect, 100 complete control)
# Outline: as §1
# corn (Zea mays) = assay: Test A postemergence, visual plant response rating; conditions: for Corn plant response rating (0 to 100 scale): 500 g ai/ha, postemergence, 0 is no effect, 100 is complete control; for Corn plant response rating: Postemergence, 125 g ai/ha, 0 to 100 scale (0 no effect, 100 complete control)
# Outline: as §1
# [16] = test system: ducksalad (Heteranhera limosa); assay: Test B flooded paddy test, visual plant response rating; conditions: 250 g ai/ha, Flood, applied to paddy water, 2-leaf stage, evaluated after 13 to 15 days
# Outline: (§2)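 Greenhouse paddy conditions applied: two-leaf plants, a 3 cm flood above the soil surface maintained throughout, and compound added to the water rather than the foliage. Plants were judged visually against controls at 13 to 15 days.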
# [17] = test system: barnyardgrass (Echinochloa crus-galli); assay: as above; conditions: 250 g ai/ha, Flood, applied to paddy water, 2-leaf stage, evaluated after 13 to 15 days
# Outline: as §2
# [18] = test system: sedge, umbrella (small-flower umbrella sedge, Cyperus difformis); assay: as above; conditions: 250 g ai/ha, Flood, applied to paddy water, 2-leaf stage, evaluated after 13 to 15 days
# Outline: as §2
# rice (Oryza sativa) = assay: as above; conditions: 250 g ai/ha, Flood, applied to paddy water, 2-leaf stage, evaluated after 13 to 15 days
# Outline: as §2
Compound,"Foxtail, Giant plant response rating [1]","Foxtail, Giant plant response rating (0 to 100 scale) [1]",Pigweed plant response rating [2],Pigweed plant response rating (0 to 100 scale) [2],Barnyardgrass plant response rating [3],Barnyardgrass plant response rating (0 to 100 scale) [3],Kochia plant response rating (kochia (Kochia scoparia) [4]),Kochia plant response rating (0 to 100 scale) (kochia (Kochia scoparia) [4]),"Ryegrass, Italian plant response rating [5]","Ryegrass, Italian plant response rating (0 to 100 scale) [5]",Ragweed plant response rating [6],Ragweed plant response rating (0 to 100 scale) [6],"Foxtail, Giant plant response rating (0 to 100 scale) [7]","Foxtail, Giant plant response rating [7]",Pigweed plant response rating (0 to 100 scale) [8],Pigweed plant response rating [8],Galium plant response rating (0 to 100 scale) [9],Galium plant response rating [9],Wheat plant response rating (0 to 100 scale) [10],Wheat plant response rating [10],also measured
CO/N=C(\c1cscc1C)c1c(O)c(C)nn(C)c1=O [Compound 52],0,10,60,80,0,10,0,20,0,40,0,30,20,10,90,70,80,70,0,0,"Barnyardgrass plant response rating (0 to 100 scale) [11]: 30; Barnyardgrass plant response rating [11]: 10; Kochia plant response rating (0 to 100 scale) (kochia (Kochia scoparia) [12]): 60; Kochia plant response rating (kochia (Kochia scoparia) [12]): 20; Ryegrass, Italian plant response rating (0 to 100 scale) [13]: 80; Ryegrass, Italian plant response rating [13]: 10; Blackgrass plant response rating (0 to 100 scale) [14]: 30; Blackgrass plant response rating [14]: 0; Ragweed plant response rating (0 to 100 scale) [15]: 90; Ragweed plant response rating [15]: 60; Corn plant response rating (0 to 100 scale) (corn (Zea mays)): 0; Corn plant response rating (corn (Zea mays)): 0; Plant response rating, Ducksalad (0 to 100 scale, 0 is no effect, 100 is complete control) [16]: 0; Plant response rating, Barnyardgrass (0 to 100 scale, 0 is no effect, 100 is complete control) [17]: 0; Plant response rating, Sedge, Umbrella (0 to 100 scale, 0 is no effect, 100 is complete control) [18]: 0; Plant response rating, Rice (0 to 100 scale, 0 is no effect, 100 is complete control) (rice (Oryza sativa)): 0"
CO/N=C(\c1cccc(C(F)(F)F)c1)c1c(O)c(C)nn(C)c1=O [Compound 71],0,0,20,60,0,0,0,0,0,20,10,30,20,10,70,60,80,60,40,20,"Barnyardgrass plant response rating (0 to 100 scale) [11]: 30; Barnyardgrass plant response rating [11]: 10; Kochia plant response rating (0 to 100 scale) (kochia (Kochia scoparia) [12]): 60; Kochia plant response rating (kochia (Kochia scoparia) [12]): 50; Ryegrass, Italian plant response rating (0 to 100 scale) [13]: 40; Ryegrass, Italian plant response rating [13]: 40; Blackgrass plant response rating (0 to 100 scale) [14]: 50; Blackgrass plant response rating [14]: 20; Ragweed plant response rating (0 to 100 scale) [15]: 60; Ragweed plant response rating [15]: 20; Corn plant response rating (0 to 100 scale) (corn (Zea mays)): 10; Corn plant response rating (corn (Zea mays)): 0; Plant response rating, Ducksalad (0 to 100 scale, 0 is no effect, 100 is complete control) [16]: 0; Plant response rating, Barnyardgrass (0 to 100 scale, 0 is no effect, 100 is complete control) [17]: 0; Plant response rating, Sedge, Umbrella (0 to 100 scale, 0 is no effect, 100 is complete control) [18]: 0; Plant response rating, Rice (0 to 100 scale, 0 is no effect, 100 is complete control) (rice (Oryza sativa)): 10"
CON=C(c1cccc(C)c1F)c1c(O)c(C)nn(C)c1=O [Compound 70],0,10,0,40,0,10,0,50,0,10,70,80,40,0,90,80,80,70,0,0,"Barnyardgrass plant response rating (0 to 100 scale) [11]: 30; Barnyardgrass plant response rating [11]: 0; Kochia plant response rating (0 to 100 scale) (kochia (Kochia scoparia) [12]): 80; Kochia plant response rating (kochia (Kochia scoparia) [12]): 70; Ryegrass, Italian plant response rating (0 to 100 scale) [13]: 70; Ryegrass, Italian plant response rating [13]: 0; Blackgrass plant response rating (0 to 100 scale) [14]: 30; Blackgrass plant response rating [14]: 0; Ragweed plant response rating (0 to 100 scale) [15]: 80; Ragweed plant response rating [15]: 80; Corn plant response rating (0 to 100 scale) (corn (Zea mays)): 0; Corn plant response rating (corn (Zea mays)): 0; Plant response rating, Ducksalad (0 to 100 scale, 0 is no effect, 100 is complete control) [16]: 0; Plant response rating, Barnyardgrass (0 to 100 scale, 0 is no effect, 100 is complete control) [17]: 0; Plant response rating, Sedge, Umbrella (0 to 100 scale, 0 is no effect, 100 is complete control) [18]: 0; Plant response rating, Rice (0 to 100 scale, 0 is no effect, 100 is complete control) (rice (Oryza sativa)): 0"

# Source: patent US20210045385A1, “PYRIDAZINONE-SUBSTITUTED KETOXIMES AS HERBICIDES” (FMC Corporation, priority 2018, published 2021)
